Measured values: ChEMBL document CHEMBL4130470, “Lipid lowering agents of natural origin: An account of some promising chemotypes” (2017)

Tests used:
[1] = test system: Rattus norvegicus; assay: Reduction in LDL-C level in rat dosed for 7 days; type: functional; parameters: scale not given: the % may be the effect or the level left
[2] = test system: Rattus norvegicus; assay: Increase in HDL-C level in rat dosed for 7 days; type: functional
[3] = test system: Hamster; assay: Antidyslipidemic activity in HFD-fed dyslipidemic hamster assessed as reduction in serum total cholesterol at 50 mg/kg; type: functional, Cricetinae; parameters: scale not given: the % may be the effect or the level left
[4] = test system: Hamster; assay: Antidyslipidemic activity in HFD-fed dyslipidemic hamster assessed as reduction in serum triglyceride level at 50 mg/kg; type: functional, Cricetinae; parameters: scale not given: the % may be the effect or the level left
[5] = test system: Hamster; assay: Antidyslipidemic activity in HFD-fed dyslipidemic hamster assessed as reduction in serum glycerol at 50 mg/kg; type: functional, Cricetinae; parameters: scale not given: the % may be the effect or the level left
[6] = test system: Hamster; assay: Antidyslipidemic activity in HFD-fed dyslipidemic hamster assessed as HDLC/total cholesterol at 50 mg/kg; type: functional, Cricetinae
[7] = test system: Homo sapiens; assay: Reduction in LDL-C level in hypercholesterolemic patient dosed for 3 months; type: functional; parameters: scale not given: the % may be the effect or the level left
[8] = test system: Homo sapiens; assay: Reduction in triglyceride level in hypercholesterolemic patient dosed for 3 months; type: functional; parameters: scale not given: the % may be the effect or the level left
[9] = test system: Homo sapiens; assay: Reduction in total cholesterol level in hypercholesterolemic patient dosed for 3 months; type: functional; parameters: scale not given: the % may be the effect or the level left
[10] = test system: Hamster; assay: Reduction in serum LDL-C level hyperlipidemic hamster relative to untreated control; type: functional, Cricetinae; parameters: scale not given: the % may be the effect or the level left
[11] = test system: Hamster; assay: Reduction in serum total cholesterol level hyperlipidemic hamster relative to untreated control; type: functional, Cricetinae; parameters: scale not given: the % may be the effect or the level left
[12] = test system: Hamster; assay: Increase in hepatic LDLR protein hyperlipidemic hamster relative to untreated control; type: functional, Cricetinae
[13] = test system: Hamster; assay: Increase in hepatic LDLR mRNA hyperlipidemic hamster relative to untreated control; type: functional, Cricetinae
[14] = organism: Homo sapiens; assay: Reduction in total cholesterol in human at 500 mg/day; type: functional; parameters: scale not given: the % may be the effect or the level left
[15] = organism: Homo sapiens; assay: Increase in HDL-C in human at 500 mg/day; type: functional
[16] = organism: Homo sapiens; assay: Reduction in serum lipid peroxides in human at 500 mg/day; type: functional; parameters: scale not given: the % may be the effect or the level left
[17] = organism: Homo sapiens; assay: Reduction in LDL-C level in patient with moderate hypercholesterolemia at 20 to 80 mg/day; type: functional; parameters: scale not given: the % may be the effect or the level left
[18] = organism: Homo sapiens; assay: Increase in HDL-C level in patient with moderate hypercholesterolemia at 20 to 80 mg/day; type: functional
[19] = organism: Homo sapiens; assay: Reduction in total cholesterol level in patient with moderate hypercholesterolemia at 20 to 80 mg/day; type: functional; parameters: scale not given: the % may be the effect or the level left
[20] = organism: Homo sapiens; assay: Reduction in triglyceride level in patient with moderate hypercholesterolemia at 20 to 80 mg/day; type: functional; parameters: scale not given: the % may be the effect or the level left
[21] = organism: Sus scrofa; assay: Reduction in total cholesterol in swine with metabolic syndrome and myocardial ischemia; type: functional; parameters: scale not given: the % may be the effect or the level left
[22] = organism: Sus scrofa; assay: Reduction in LDL in swine with metabolic syndrome and myocardial ischemia; type: functional; parameters: scale not given: the % may be the effect or the level left
[23] = organism: Homo sapiens; assay: Reduction in triglyceride level in patient with heterozygous familial hypercholesterolaemia at 40 mg/day; type: functional; parameters: scale not given: the % may be the effect or the level left
[24] = organism: Homo sapiens; assay: Reduction in LDL-C level in patient with heterozygous familial hypercholesterolaemia at 40 mg/day; type: functional; parameters: scale not given: the % may be the effect or the level left
[25] = organism: Homo sapiens; assay: Increase in HDL-C level in patient with heterozygous familial hypercholesterolaemia at 40 mg/day; type: functional
[26] = test system: Rattus norvegicus; assay: Hypercholesterolemic activity in rat assessed as reduction in plasma cholesterol level at 4 to 25 mg/kg/day; type: functional; parameters: scale not given: the % may be the effect or the level left
[27] = test system: Rattus norvegicus; assay: Hypercholesterolemic activity in rat assessed as reduction in triglyceride level at 4 to 25 mg/kg/day; type: functional; parameters: scale not given: the % may be the effect or the level left
[28] = test system: Rattus norvegicus; assay: Hypercholesterolemic activity in male rat assessed as reduction in cholesterol level at 80 mg/kg/day for 7 days; type: functional; parameters: scale not given: the % may be the effect or the level left
[29] = test system: Rattus norvegicus; assay: Hypercholesterolemic activity in male rat assessed as reduction in triglyceride level at 80 mg/kg/day for 7 days; type: functional; parameters: scale not given: the % may be the effect or the level left
[30] = test system: Rattus norvegicus; assay: Hypercholesterolemic activity in rat assessed as reduction in cholesterol level at 80 mg/kg/day for 8 days; type: functional; parameters: scale not given: the % may be the effect or the level left

Which Activity [1] does the source give for `C/C=C/c1cc(OC)c(OC)c(OC)c1` here?
The Activity was 47%.

What about the Activity [2] of the same molecule?
Its Activity is 56%.

Which results are given for `CC(C)=CCC/C(C)=C/CC/C(C)=C/CC/C(C)=C\CC/C(C)=C\CC/C(C)=C\CC/C(C)=C\CC/C(C)=C\CC/C(C)=C\CC/C(C)=C\CC/C(C)=C\CC/C(C)=C\CO`?
Activity [3]: 25%; Activity [4]: 42%; Activity [5]: 12%; Activity [6]: 26%

Which Activity [7] does the source give for `COc1ccc2cc3[n+](cc2c1OC)CCc1cc2c(cc1-3)OCO2` [BERBERINE] here?
Its Activity is 25%.

And the Activity [8]?
The Activity was 35%.

And the Activity [9]?
Its Activity is 29%.

And the Activity [10]?
Its Activity is 42%.

What about the Activity [11] of the same molecule?
The Activity was 40%.

And the “fold change (FC)” value [12]?
Its value is 2.6.

What about the “fold change (FC)” value [13] of the same molecule?
Its value is 3.5.

With `COc1cc(/C=C/C(=O)CC(=O)/C=C/c2ccc(O)c(OC)c2)ccc1O` [CURCUMIN] as the molecule, how does the Activity [14] read?
The Activity was 12%.

What about the Activity [15] of the same molecule?
The Activity was 29%.

What about the Activity [16] of the same molecule?
Its Activity is 33%.

Which results are given for `CC[C@H](C)C(=O)O[C@H]1C[C@@H](C)C=C2C=C[C@H](C)[C@H](CC[C@@H]3C[C@@H](O)CC(=O)O3)[C@H]21` [LOVASTATIN]?
Activity [17]: 24 - 40%; Activity [18]: 6.6 - 9.5%; Activity [19]: 17 - 29%; Activity [20]: 10 - 19%

Which results are given for `Oc1ccc(/C=C/c2cc(O)cc(O)c2)cc1` [RESVERATROL]?
Activity [21]: 33%; Activity [22]: 30%

With `CCC(C)(C)C(=O)O[C@H]1C[C@@H](C)C=C2C=C[C@H](C)[C@H](CC[C@@H]3C[C@@H](O)CC(=O)O3)[C@H]21` [SIMVASTATIN] as the molecule, how does the Activity [23] read?
Its Activity is 21 - 31%.

And the Activity [24]?
The Activity was 43 - 45%.

And the Activity [25]?
Its Activity is 10 - 13%.

Which results are given for `C/C=C/c1cc(OC)c(OC)cc1OC` [TRANS-ASARONE]?
Activity [26]: 40 - 60%; Activity [27]: 40 - 60%; Activity [28]: 57%; Activity [29]: 42%; Activity [30]: 38%
